The text below walks through data of ChEMBL document CHEMBL1134625 (J Med Chem, 2001).

For assay [1], the target named is T1, Adenosine receptor A3 (Homo sapiens, UniProt P0DMS8).
T1 sequence (P0DMS8 whole entry): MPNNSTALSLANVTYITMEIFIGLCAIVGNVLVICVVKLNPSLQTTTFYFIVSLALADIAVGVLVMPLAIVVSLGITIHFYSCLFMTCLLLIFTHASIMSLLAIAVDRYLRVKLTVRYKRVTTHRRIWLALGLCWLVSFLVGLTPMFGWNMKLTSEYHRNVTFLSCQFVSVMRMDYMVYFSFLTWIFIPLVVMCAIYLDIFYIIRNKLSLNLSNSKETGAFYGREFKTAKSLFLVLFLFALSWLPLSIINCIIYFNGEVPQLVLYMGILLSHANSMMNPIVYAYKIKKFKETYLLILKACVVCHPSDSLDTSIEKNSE

In assay [2] the target is 5-hydroxytryptamine receptor 2A (Homo sapiens, UniProt P28223).
Chain of 5-hydroxytryptamine receptor 2A (P28223 whole entry): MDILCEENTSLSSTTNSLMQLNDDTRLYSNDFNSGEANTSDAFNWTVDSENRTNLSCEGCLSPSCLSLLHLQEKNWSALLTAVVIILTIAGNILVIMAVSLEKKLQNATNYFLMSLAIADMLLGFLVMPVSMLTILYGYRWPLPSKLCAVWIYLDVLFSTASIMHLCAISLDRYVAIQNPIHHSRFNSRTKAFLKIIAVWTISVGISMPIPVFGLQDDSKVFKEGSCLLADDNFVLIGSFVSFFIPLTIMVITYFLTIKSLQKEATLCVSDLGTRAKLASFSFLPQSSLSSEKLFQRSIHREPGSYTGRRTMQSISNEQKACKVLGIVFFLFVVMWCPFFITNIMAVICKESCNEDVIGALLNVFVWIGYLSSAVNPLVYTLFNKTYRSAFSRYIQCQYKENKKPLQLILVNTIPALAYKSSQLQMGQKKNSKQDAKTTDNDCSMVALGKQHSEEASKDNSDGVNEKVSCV
Assay [3] addresses 5-hydroxytryptamine receptor 7 (Homo sapiens, UniProt P34969).
In assay [4] the target is D(3) dopamine receptor (Homo sapiens, UniProt P35462).
Chain of D(3) dopamine receptor (P35462 whole entry): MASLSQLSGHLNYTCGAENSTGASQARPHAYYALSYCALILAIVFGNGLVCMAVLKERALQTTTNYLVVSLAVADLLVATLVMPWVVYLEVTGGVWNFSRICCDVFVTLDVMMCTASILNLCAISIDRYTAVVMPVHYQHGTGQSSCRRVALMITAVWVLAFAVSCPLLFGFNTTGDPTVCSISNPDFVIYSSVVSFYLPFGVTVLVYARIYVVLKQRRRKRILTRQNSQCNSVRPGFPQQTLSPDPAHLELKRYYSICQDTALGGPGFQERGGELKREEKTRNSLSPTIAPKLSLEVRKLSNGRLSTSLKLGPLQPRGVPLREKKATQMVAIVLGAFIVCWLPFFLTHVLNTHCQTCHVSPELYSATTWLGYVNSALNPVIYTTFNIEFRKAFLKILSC
The target in assay [5] is Histamine H1 receptor (Homo sapiens, UniProt P35367).
Chain of Histamine H1 receptor (P35367 whole entry): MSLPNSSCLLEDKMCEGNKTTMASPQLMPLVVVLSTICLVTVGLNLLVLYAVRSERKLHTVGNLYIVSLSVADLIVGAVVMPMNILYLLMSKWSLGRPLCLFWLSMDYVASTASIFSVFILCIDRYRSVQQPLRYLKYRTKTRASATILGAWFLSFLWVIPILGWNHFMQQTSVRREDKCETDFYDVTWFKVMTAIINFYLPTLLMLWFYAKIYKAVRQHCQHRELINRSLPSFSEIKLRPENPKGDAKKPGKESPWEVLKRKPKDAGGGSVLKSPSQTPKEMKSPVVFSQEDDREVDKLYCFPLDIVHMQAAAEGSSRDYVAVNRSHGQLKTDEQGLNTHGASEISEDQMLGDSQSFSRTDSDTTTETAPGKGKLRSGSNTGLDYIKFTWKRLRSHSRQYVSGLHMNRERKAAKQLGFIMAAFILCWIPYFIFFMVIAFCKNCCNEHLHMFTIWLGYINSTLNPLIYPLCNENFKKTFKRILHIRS
For assay [6], the target named is 5-hydroxytryptamine receptor 6 (Homo sapiens, UniProt P50406).
Chain of 5-hydroxytryptamine receptor 6 (P50406 whole entry): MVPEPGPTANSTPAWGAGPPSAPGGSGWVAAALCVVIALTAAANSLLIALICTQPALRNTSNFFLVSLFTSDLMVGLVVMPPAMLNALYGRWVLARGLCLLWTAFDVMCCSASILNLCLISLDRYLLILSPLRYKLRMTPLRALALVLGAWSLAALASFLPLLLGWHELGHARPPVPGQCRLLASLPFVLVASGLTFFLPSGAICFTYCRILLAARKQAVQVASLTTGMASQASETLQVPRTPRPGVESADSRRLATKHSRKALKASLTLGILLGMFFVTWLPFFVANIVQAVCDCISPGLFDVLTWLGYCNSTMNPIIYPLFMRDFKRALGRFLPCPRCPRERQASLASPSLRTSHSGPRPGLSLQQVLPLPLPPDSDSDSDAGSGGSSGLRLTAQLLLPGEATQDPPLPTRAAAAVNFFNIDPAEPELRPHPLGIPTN
The target of assay [7] is T2, 5-hydroxytryptamine receptor 1A (Homo sapiens, UniProt P08908).
T2 sequence (P08908 whole entry): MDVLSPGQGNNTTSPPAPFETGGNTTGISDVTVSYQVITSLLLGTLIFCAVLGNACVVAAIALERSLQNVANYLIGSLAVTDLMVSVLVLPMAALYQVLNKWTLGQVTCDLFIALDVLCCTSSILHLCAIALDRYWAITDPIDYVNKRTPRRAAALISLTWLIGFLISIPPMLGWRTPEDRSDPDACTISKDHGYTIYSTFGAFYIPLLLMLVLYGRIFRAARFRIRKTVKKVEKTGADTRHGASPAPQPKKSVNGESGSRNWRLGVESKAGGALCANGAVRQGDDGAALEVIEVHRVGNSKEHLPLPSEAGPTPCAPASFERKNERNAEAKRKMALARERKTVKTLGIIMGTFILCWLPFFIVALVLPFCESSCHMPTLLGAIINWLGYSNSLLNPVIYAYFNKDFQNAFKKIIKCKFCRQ

The target of assay [8] is Voltage-gated L-type calcium channel (Homo sapiens, UniProt Q13936+Q13698+Q01668+O60840). The assay is classed as protein assay.
The target in assay [9] is T3, Adrenergic receptor alpha-1 (Homo sapiens, UniProt P35348+P25100+P35368).
T3 sequence (P35348 whole entry): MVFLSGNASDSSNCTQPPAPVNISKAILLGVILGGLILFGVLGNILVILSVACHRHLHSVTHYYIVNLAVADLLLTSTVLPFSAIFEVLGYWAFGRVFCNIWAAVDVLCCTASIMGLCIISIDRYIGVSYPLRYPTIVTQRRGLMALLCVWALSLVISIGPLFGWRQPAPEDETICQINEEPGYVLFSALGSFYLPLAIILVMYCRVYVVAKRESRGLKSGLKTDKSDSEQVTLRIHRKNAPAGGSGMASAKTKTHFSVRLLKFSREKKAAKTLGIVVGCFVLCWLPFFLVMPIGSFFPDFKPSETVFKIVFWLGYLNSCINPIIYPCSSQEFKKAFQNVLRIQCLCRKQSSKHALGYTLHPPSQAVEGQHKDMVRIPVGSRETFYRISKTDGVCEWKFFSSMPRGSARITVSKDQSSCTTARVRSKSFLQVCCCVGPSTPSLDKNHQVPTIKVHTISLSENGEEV
T3 sequence (P25100 whole entry): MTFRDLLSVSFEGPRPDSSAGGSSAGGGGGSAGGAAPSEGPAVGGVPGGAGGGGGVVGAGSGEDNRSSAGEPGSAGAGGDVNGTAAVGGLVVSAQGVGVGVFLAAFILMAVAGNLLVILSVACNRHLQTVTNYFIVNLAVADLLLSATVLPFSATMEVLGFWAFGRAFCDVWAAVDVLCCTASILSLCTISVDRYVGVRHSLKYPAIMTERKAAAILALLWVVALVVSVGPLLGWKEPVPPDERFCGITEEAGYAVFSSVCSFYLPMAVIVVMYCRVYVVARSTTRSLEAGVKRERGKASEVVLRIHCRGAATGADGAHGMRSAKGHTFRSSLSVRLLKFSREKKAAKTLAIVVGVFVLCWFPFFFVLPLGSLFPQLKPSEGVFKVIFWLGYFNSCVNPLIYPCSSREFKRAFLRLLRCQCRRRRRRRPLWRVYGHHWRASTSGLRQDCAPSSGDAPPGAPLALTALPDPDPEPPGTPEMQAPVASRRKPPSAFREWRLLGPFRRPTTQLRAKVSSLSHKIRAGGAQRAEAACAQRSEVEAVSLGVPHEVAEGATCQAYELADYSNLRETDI
T3 sequence (P35368 whole entry): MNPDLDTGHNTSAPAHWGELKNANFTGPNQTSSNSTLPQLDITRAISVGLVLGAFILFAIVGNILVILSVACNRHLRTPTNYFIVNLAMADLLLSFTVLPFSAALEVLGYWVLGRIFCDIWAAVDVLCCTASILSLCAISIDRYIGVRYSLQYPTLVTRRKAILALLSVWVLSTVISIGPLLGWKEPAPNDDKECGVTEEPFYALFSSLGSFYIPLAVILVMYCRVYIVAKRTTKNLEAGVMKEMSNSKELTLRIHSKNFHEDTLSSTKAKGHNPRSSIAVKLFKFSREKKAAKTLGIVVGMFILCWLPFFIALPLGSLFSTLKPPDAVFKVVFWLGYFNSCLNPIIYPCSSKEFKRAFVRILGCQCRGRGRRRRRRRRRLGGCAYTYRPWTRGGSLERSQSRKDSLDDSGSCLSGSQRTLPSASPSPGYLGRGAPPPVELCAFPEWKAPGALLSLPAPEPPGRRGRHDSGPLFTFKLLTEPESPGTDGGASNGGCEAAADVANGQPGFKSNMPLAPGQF
Type of assay: protein assay.

Assay [10] addresses T4, D(4) dopamine receptor (Homo sapiens, UniProt P21917).
T4 sequence (P21917 whole entry): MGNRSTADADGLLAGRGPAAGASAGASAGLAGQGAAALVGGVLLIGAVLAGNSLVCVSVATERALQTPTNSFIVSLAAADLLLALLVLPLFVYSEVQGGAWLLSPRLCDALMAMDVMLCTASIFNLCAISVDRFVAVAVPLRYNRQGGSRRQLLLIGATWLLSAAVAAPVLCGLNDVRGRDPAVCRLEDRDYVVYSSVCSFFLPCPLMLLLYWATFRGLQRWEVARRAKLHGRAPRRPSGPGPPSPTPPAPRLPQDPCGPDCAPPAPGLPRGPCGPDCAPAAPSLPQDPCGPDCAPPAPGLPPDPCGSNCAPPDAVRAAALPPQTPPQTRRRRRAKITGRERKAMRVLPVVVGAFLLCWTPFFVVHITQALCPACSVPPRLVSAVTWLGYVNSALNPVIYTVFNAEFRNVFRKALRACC

Assay [11] deals with Histamine H2 receptor (Homo sapiens, UniProt P25021).
Chain of Histamine H2 receptor (P25021 whole entry): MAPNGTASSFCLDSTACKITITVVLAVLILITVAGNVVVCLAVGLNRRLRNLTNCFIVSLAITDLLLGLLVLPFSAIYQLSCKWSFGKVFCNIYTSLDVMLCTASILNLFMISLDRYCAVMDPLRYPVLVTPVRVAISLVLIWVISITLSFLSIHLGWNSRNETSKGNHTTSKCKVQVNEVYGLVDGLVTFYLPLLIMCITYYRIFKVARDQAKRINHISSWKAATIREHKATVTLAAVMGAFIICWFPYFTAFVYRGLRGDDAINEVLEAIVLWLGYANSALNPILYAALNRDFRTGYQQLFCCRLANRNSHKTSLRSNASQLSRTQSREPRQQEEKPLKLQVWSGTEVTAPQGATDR
The target of assay [12] is D(1B) dopamine receptor (Homo sapiens, UniProt P21918).
Chain of D(1B) dopamine receptor (P21918 whole entry): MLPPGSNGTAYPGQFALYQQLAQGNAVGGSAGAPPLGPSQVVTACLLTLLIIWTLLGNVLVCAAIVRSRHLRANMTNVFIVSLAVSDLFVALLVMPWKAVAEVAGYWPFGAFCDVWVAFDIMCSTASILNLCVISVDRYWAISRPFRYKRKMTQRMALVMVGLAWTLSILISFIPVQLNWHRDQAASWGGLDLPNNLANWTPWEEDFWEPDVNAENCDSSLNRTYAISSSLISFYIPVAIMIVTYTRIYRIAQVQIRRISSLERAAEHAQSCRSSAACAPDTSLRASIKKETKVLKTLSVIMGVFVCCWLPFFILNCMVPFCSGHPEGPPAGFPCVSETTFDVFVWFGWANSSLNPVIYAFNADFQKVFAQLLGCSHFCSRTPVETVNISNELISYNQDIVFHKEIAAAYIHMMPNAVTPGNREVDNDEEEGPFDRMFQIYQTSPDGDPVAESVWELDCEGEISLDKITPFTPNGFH
Assay [13] concerns the target T5, Sodium-dependent dopamine transporter (Homo sapiens, UniProt Q01959).
Assay [14] has as its target D(1A) dopamine receptor (Homo sapiens, UniProt P21728).
Assay [15] concerns the target T6, 5-hydroxytryptamine receptor 2C (Homo sapiens, UniProt P28335).
T6 sequence (P28335 whole entry): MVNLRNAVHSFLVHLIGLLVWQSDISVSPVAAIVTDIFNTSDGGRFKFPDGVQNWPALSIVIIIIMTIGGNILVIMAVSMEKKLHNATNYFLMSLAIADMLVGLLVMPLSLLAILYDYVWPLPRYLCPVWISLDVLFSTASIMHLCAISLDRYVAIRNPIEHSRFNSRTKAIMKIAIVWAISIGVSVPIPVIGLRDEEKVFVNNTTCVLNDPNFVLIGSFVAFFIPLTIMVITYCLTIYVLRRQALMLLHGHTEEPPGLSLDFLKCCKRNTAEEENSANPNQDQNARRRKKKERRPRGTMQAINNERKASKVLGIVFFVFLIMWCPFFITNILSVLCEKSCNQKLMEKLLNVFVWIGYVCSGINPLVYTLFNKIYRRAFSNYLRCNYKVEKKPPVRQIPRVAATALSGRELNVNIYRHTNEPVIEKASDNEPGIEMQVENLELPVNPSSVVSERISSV

Assay [16] deals with 5-hydroxytryptamine receptor 5A (Homo sapiens, UniProt P47898).
Assay [17] addresses D(2) dopamine receptor (Homo sapiens, UniProt P14416).
Assay [18] concerns the target Vasopressin V1a receptor (Homo sapiens, UniProt P37288).
In assay [19] the target is T5, Sodium-dependent dopamine transporter. This is another data set of the same source.
The target in assay [20] is Adenosine receptor A1 (Homo sapiens, UniProt P30542).
Chain of Adenosine receptor A1 (P30542 whole entry): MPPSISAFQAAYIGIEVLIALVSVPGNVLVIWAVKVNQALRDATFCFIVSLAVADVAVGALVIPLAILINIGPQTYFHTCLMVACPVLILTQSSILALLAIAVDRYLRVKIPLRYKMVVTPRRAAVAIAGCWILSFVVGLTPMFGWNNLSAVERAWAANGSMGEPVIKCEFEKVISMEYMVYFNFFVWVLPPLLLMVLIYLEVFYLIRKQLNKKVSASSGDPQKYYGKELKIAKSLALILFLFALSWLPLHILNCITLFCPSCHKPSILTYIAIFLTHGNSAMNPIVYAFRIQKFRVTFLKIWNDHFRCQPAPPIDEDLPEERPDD

T5 sequence (Q01959 whole entry): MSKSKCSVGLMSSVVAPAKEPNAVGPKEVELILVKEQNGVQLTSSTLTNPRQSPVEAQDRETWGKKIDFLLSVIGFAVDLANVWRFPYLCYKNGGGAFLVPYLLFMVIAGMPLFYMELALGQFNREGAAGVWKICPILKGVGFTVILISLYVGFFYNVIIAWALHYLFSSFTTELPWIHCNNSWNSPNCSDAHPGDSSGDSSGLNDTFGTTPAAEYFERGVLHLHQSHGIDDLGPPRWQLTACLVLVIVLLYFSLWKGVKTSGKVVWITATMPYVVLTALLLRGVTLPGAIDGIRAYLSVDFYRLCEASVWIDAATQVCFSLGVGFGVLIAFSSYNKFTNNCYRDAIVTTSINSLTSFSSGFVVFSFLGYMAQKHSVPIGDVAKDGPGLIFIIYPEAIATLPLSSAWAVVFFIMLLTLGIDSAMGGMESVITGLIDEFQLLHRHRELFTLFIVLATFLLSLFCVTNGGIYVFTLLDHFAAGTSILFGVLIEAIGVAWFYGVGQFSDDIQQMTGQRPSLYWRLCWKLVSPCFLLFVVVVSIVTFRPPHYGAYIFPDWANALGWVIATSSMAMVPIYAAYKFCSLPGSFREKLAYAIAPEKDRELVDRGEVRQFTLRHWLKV
Chain of 5-hydroxytryptamine receptor 7 (P34969 whole entry): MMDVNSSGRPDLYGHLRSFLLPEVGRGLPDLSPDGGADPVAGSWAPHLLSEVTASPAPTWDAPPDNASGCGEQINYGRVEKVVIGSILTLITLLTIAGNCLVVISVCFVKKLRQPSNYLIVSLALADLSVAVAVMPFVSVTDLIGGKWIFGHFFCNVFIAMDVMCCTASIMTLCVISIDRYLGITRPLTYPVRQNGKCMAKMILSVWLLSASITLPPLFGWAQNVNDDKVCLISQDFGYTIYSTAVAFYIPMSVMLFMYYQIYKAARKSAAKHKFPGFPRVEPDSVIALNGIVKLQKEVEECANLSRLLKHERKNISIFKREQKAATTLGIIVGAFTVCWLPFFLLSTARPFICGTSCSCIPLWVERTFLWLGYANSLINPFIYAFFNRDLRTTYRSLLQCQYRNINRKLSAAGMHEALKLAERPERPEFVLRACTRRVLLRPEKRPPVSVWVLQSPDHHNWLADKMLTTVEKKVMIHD
Chain of D(1A) dopamine receptor (P21728 whole entry): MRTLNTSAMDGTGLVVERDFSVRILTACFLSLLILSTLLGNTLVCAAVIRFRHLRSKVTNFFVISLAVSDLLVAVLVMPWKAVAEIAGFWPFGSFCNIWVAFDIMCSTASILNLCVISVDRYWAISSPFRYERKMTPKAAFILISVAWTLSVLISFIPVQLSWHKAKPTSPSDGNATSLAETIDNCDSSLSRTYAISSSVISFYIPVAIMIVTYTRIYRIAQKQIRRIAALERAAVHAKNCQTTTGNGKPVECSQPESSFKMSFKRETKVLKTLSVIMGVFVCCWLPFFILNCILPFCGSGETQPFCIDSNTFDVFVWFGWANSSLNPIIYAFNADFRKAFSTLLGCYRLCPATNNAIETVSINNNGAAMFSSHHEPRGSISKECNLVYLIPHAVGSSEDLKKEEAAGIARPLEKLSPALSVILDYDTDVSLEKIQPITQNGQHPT
Chain of D(2) dopamine receptor (P14416 whole entry): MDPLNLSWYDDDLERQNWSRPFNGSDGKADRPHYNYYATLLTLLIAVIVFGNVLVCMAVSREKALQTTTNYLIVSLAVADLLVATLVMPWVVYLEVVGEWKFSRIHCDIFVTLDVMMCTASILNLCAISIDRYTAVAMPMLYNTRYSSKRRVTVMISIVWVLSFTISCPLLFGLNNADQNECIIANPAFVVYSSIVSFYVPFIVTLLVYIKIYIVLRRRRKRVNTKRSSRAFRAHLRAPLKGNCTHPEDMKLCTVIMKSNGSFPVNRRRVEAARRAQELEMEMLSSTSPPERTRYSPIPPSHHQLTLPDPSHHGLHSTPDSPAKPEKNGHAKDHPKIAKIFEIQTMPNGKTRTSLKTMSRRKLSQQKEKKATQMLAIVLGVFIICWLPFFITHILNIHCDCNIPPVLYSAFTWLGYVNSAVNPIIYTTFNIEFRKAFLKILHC

Consider `COc1ccc(SCCC(=O)N2CCN(Cc3cccc(Oc4ccc(Cl)cc4)c3)CC2)cc1`, for which 3750 nM corresponded to half-maximal inhibition in assay [1] (IC50).

For the compound `CCOc1ccc(CCOC(=O)N2CCN(CCCc3ccccc3)CC2)cc1`, the concentration for half-maximal inhibition (IC50) (usually the concentration that gives 50% inhibition) in assay [2] was determined as 980 nM; in assay [3], 1430 nM; in assay [1] it was 4180 nM.

On to `O=C(CCc1ccc(F)cc1)N1CCN(CCCC(c2ccc(F)cc2)c2ccc(F)cc2)CC1`, for which the IC50 in [4] was 977 nM; in assay [2], 1030 nM; in [5], 1660 nM; in assay [6], 1350 nM; in assay [7] it was 1110 nM; in assay [8], 4300 nM. For the same compound, the IC50 in [9] is 1170 nM; in [3], 1170 nM; in assay [10] it was 716 nM; in assay [11], 1340 nM; in assay [1], 5080 nM; in assay [12] it was 3020 nM. For the same compound, the IC50 in assay [13] is 1280 nM.

On to `O=C(CCCc1ccccc1)N1CCN(CCCC(c2ccc(F)cc2)c2ccc(F)cc2)CC1`, for which the IC50 came to 758 nM in assay [4]; 2750 nM in assay [14]; 950 nM in assay [2]; 1930 nM in assay [5]; 4070 nM in assay [15]; 7780 nM in assay [6]. Besides, the IC50 in [8] stood at 2350 nM; in assay [9], 2190 nM; in [3] it was 2130 nM; in assay [10], 280 nM; in [11], 1980 nM; in assay [16], 5520 nM. Further, the IC50 in [12] was 1860 nM; in [13], 954 nM.

For `N#Cc1ccc(CCOC(=O)N2CCN(CCCc3ccccc3)CC2)cc1`, the IC50 in assay [2] is 854 nM; in [5] it was 280 nM; in assay [7], 1570 nM; in assay [10], 1410 nM.

As for `O=C(OCCc1ccc(F)cc1)N1CCN(CCCC(c2ccc(F)cc2)c2ccc(F)cc2)CC1`, the IC50 in assay [17] stood at 2620 nM; in [4] it was 456 nM; in assay [2] it was 1060 nM; in assay [5], 1280 nM; in assay [15], 3450 nM; in assay [6] it was 1530 nM. In addition, the IC50 in [7] turned out to be 1140 nM; in [8], 2730 nM; in [9], 1640 nM; in assay [3], 726 nM; in assay [10] it was 338 nM; in assay [11] it was 1250 nM. The IC50 in assay [1] turned out to be 4210 nM; in [12], 1550 nM; in [13], 1650 nM.

For the compound `O=C(OC1CCc2ccccc21)N1CCC2(CC1)C(=O)NCN2c1ccccc1` (centres undefined), the results for the IC50 in assay [4], in assay [15] and in assay [18] were 3180 nM, 345 nM and 5160 nM, respectively.

For the compound `O=c1[nH]c2ccccc2n(C2CCN(Cc3cc4c(cc3Cl)OCO4)CC2)c1=O`, the IC50 worked out at 6550 nM in assay [10] and 1520 nM in [13].

For `N#Cc1ccc(CCOC(=O)N2CCN(CCCC(c3ccc(F)cc3)c3ccc(F)cc3)CC2)cc1`, the IC50 in assay [17] was 2240 nM; in assay [4] it was 195 nM; in [14] it was 1120 nM; in assay [2], 715 nM; in [5], 795 nM; in assay [6], 2280 nM. For the same compound, the IC50 was 1020 nM in assay [7]; 1720 nM in assay [8]; 1100 nM in [9]; 1440 nM in assay [3]; 776 nM in assay [10]; 1030 nM in [11]. Besides, the IC50 in [16] worked out at 3380 nM; in assay [1], 3480 nM; in [12] it was 988 nM; in assay [13], 996 nM.

Consider `O=C(OCc1cccc(Oc2ccccc2)c1)N1CCC2(CC1)C(=O)NCN2c1ccccc1`, for which the IC50 was determined as 2940 nM in assay [19], 652 nM in [15], 2080 nM in [7] and 1510 nM in assay [1].

For the compound `O=C(NCCCn1c(=O)[nH]c2ccccc21)OCc1cc2c(cc1Cl)OCO2`, the figures for the IC50 in assay [20] and in assay [1] were 344 nM and 3330 nM, respectively.

`COc1ccc(CN2CCN(C(=O)CCn3cc(C)c4ccccc43)CC2)cc1OCc1ccccc1`: the half-inhibitory concentration (IC50) in assay [8] worked out at 4840 nM; in [1], 3730 nM.
